Assay results published in the supplement of paper PMC10307832.

Experiments:
Test in all cases: relative viability (nuclei count vs DMSO), 5 days (fraction); higher = more cells survive
[1] = compound: CO[C@@H]1[C@H](N(C)C(=O)c2ccccc2)C[C@H]2O[C@]1(C)n1c3ccccc3c3c4c(c5c6ccccc6n2c5c31)C(=O)NC4 [Midostaurin] + CCNC(=O)c1noc(-c2cc(C(C)C)c(O)cc2O)c1-c1ccc(CN2CCOCC2)cc1 [Luminespib] (partner 0.01 µM)
Summary of the method: (§1)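 Lung cancer cell lines in 1536-well plates were dosed by pin tool the day after seeding, either with one drug alone or with a fixed anchor-drug dose plus five library-drug doses (not always all listed) in √10 steps. After 5 days, cells were fixed and their nuclei stained in one step (final 0.05% Triton X-100, 1% formaldehyde, 1 ug/ml Hoechst), then counted on 4× images. Relative viability is the nuclei count in treated wells divided by that in vehicle wells. Values are medians of duplicate plates.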

[2] = compound: COc1cc(-c2nn([C@H]3CC[C@H](N4CCN(C(C)=O)CC4)CC3)c3ncnc(N)c23)ccc1NC(=O)c1cc2ccccc2n1C + Cc1nc(NC(=O)N2CCC[C@H]2C(N)=O)sc1-c1ccnc(C(C)(C)C(F)(F)F)c1 [Alpelisib] (partner 2 µM)
Summary of the method: as §1

[3] = compound: COc1cc(-c2nn([C@H]3CC[C@H](N4CCN(C(C)=O)CC4)CC3)c3ncnc(N)c23)ccc1NC(=O)c1cc2ccccc2n1C + O=C(c1cc(Cc2n[nH]c(=O)c3ccccc23)ccc1F)N1CCN(C(=O)C2CC2)CC1 [Olaparib] (partner 8 µM)
Summary of the method: as §1

[4] = compound: COc1cc(-c2nn([C@H]3CC[C@H](N4CCN(C(C)=O)CC4)CC3)c3ncnc(N)c23)ccc1NC(=O)c1cc2ccccc2n1C + Cc1cc(Nc2cc(N3CCN(C)CC3)nc(Sc3ccc(NC(=O)C4CC4)cc3)n2)n[nH]1 [Tozasertib] (partner 0.1 µM)
Summary of the method: as §1

[5] = compound: COc1cc(-c2nn([C@H]3CC[C@H](N4CCN(C(C)=O)CC4)CC3)c3ncnc(N)c23)ccc1NC(=O)c1cc2ccccc2n1C + COc1cccc2cc(-c3nc([C@H]4CC[C@H](C(=O)O)CC4)n4ncnc(N)c34)[nH]c12 [OSI-027] (partner 0.5 µM)
Summary of the method: as §1

Cell Line	relative viability ([1]; first compound 0.03162 µM)	relative viability ([1]; first compound 0.1 µM)	relative viability ([1]; first compound 0.3162 µM)	relative viability ([2]; first compound 0.0128 µM)	relative viability ([2]; first compound 0.04048 µM)	relative viability ([2]; first compound 0.128 µM)	relative viability ([2]; first compound 1.28 µM)	relative viability ([3]; first compound 0.0128 µM)	relative viability ([3]; first compound 0.04048 µM)	relative viability ([3]; first compound 0.128 µM)	relative viability ([3]; first compound 1.28 µM)	relative viability ([4]; first compound 0.0128 µM)	relative viability ([4]; first compound 0.04048 µM)	relative viability ([4]; first compound 0.128 µM)	relative viability ([4]; first compound 1.28 µM)	relative viability ([5]; first compound 0.0128 µM)	relative viability ([5]; first compound 0.04048 µM)	relative viability ([5]; first compound 0.128 µM)	relative viability ([5]; first compound 1.28 µM)	relative viability ([1]; first compound 0.01 µM)
HCC-44	1.1	0.964	1.11	0.923	0.763	0.789	0.511	1.1	1.09	0.916	1.27	0.707	1.29	0.796	0.819	0.477	0.528	0.549	0.484	
HCC-78				0.376	0.361	0.322	0.281	0.938	0.933	0.768	0.456	0.456	0.368	0.742	0.269	0.341	0.371	0.356	0.26	
HCC-366				0.444	0.374	0.418	0.259	0.394	0.328	0.361	0.252	0.114	0.0717	0.0637	0.0555	0.803	0.347	0.882	0.772	
HCC-827	0.644	0.709	0.813	1.11	0.961	0.942	0.726	0.657	0.572	0.574	0.48	0.417	0.416	0.392	0.374	0.817	0.658	0.666	0.744	0.51
HOP-62	0.875	0.934	0.984	1.04	0.907	0.952	0.774	0.657	0.533	0.366	0.478	0.382	0.41	0.346	0.368	0.86	0.734	0.817	0.707	0.871
IA-LM				0.838	0.803	0.783	0.84	0.871	0.877	1.03	0.961									
LC-2-ad	0.955	0.925	0.996	1.01	0.931	0.872	0.699	0.783	0.835	0.658	0.8	0.379	0.542	0.405	0.371	0.932	0.776	0.864	0.691	0.953
LCLC-97TM1	0.713	0.749	0.763	0.252	0.203	0.226	0.319	0.455	0.501	0.326	0.441	0.275	0.252	0.201	0.253	0.596	0.243	0.489	0.586	0.836
LCLC-103H	0.875	0.847	0.674	1.02	0.938	0.88	0.775	0.851	0.79	0.615	0.773	0.438	0.453	0.431	0.423	0.47	0.469	0.493	0.417	0.906
